Source: patent publication US7214669B2, “Tetracycline derivatives and methods of use thereof” (Tetragenex Pharmaceuticals, Inc., priority 2001, dated 2007)

Assays:
[1] = test system: C8161 human melanoma cells; assay: Membrane Invasion Culture System (MICS) chemo-invasion assay; type: cell-based; details: 24 hours, + = increased invasiveness
Method in brief: (§1)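 Fifty thousand cells were seeded above a 35 μm laminin/collagen IV/gelatin barrier on a 10 μm-pore filter, with serum-free RPMI plus 50% fibroblast-conditioned medium below as chemoattractant. Compound at 1, 10 or 25 μg/ml, or DMSO vehicle, was present for 24 h. Invaded cells were collected, Wright-stained and counted over 5 fields.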

[2] = test system: RPMI-8226 human myeloma cancer cells; assay: as above; type: cell-based; details: 24 hours, + = increased invasiveness
Method in brief: as §1

[3] = test system: PC-3 ML human prostate cancer cells; assay: as above; type: cell-based; details: 24 hours, + = increased invasiveness
Method in brief: as §1

[4] = test system: MDA-MB-231 human breast cancer cells; assay: as above; type: cell-based; details: 24 hours, + = increased invasiveness
Method in brief: as §1

[5] = target: Human recombinant MMP3 (Homo sapiens, UniProt P08254); assay: MMP3 (Stromelysin 1) inhibition, 14C casein release; type: biochemical; details: 37° C., 16 hours; read-out: MMP-3 inhibitory activity, IC50
Human recombinant MMP3, sequence (P08254 100-477): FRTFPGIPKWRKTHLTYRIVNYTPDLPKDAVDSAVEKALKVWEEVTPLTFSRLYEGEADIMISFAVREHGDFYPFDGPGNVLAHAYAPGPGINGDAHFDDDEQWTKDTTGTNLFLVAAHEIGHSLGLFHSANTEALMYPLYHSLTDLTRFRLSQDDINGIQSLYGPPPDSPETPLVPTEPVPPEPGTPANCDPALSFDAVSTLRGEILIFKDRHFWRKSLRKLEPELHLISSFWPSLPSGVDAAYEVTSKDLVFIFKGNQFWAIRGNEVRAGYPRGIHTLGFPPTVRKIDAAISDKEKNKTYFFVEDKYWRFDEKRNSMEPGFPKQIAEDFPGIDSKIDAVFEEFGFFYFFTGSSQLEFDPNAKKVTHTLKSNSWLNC

[6] = target: Human recombinant MMP9 (Homo sapiens, UniProt P14780); assay: MMP9 (Gelatinase B) inhibition, 14C gelatin release; type: biochemical; details: 37° C., 16 hours; read-out: MMP-9 inhibitory activity, IC50
Human recombinant MMP9, sequence (P14780 94-707): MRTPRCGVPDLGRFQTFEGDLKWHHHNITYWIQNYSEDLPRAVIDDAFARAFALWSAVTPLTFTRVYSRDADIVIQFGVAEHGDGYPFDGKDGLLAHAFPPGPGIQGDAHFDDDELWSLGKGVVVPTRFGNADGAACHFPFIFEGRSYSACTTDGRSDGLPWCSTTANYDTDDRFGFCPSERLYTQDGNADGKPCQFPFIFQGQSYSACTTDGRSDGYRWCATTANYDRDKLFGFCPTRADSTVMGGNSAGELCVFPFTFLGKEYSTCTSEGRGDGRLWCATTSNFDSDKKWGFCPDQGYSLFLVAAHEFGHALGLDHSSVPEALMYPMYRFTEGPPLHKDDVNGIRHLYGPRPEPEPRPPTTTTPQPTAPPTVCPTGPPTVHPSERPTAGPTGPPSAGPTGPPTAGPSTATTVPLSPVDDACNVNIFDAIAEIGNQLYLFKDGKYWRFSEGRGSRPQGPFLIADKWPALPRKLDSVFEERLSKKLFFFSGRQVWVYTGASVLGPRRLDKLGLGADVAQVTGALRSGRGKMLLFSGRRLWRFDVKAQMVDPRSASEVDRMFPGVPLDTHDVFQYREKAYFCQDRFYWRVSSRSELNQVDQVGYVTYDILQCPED

[7] = target: T1, Human recombinant MMP7 (Homo sapiens, UniProt P09237); assay: MMP7 (Matrilysin) inhibition, 14C casein release; type: biochemical; details: 37° C., 16 hours; read-out: MMP-7 inhibitory activity, IC50
T1 sequence (P09237 95-267): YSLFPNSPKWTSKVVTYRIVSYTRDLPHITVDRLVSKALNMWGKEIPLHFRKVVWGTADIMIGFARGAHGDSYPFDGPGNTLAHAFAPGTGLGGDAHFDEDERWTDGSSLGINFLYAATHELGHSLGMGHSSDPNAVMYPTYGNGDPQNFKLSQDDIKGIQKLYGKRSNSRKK

[8] = target: T2, Human recombinant MMP1 (Homo sapiens, UniProt P03956); assay: MMP1 (Collagenase-1) inhibition, 14C collagen release; type: biochemical; details: 35° C., 5 hours; read-out: MMP-1 inhibitory activity, IC50
T2 sequence (P03956 100-469): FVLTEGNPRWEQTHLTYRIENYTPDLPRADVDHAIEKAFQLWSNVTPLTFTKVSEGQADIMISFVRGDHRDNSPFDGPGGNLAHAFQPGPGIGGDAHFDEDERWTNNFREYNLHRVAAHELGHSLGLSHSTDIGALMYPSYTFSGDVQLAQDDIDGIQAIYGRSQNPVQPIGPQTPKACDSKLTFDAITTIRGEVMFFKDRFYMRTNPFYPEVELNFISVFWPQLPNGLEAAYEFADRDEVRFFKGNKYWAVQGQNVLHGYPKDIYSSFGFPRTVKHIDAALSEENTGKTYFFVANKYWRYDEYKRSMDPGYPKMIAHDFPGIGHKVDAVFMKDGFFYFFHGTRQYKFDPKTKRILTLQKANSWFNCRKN

[9] = target: T3, MMP2 (Gelatinase A) (Homo sapiens, UniProt P08253); assay: MMP2 (Gelatinase A) inhibition, 14C gelatin release; type: biochemical; details: 37° C., 16 hours; read-out: MMP-2 inhibitory activity, IC50
T3 sequence (P08253 110-660): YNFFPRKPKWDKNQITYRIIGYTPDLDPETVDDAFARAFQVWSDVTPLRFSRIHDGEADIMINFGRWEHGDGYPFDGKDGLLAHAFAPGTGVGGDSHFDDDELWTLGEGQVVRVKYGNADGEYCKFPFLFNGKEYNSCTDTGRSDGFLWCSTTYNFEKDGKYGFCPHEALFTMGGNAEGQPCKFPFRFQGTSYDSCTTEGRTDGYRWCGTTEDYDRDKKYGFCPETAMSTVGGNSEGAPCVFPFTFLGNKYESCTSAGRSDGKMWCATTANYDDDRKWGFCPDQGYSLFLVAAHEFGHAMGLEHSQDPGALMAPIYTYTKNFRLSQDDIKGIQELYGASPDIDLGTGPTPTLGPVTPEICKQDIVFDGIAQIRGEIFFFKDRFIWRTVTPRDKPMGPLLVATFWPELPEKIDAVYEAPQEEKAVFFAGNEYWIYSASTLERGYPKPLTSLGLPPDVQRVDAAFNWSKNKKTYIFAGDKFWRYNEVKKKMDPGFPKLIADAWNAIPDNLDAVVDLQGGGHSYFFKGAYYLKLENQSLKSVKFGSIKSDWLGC

[10] = target: Human recombinant MMP14 (Homo sapiens, UniProt P50281); assay: MMP14 (MTI-MMP) inhibition, 14C collagen release; type: biochemical; details: 35° C., 15 hours; read-out: MMP-14 inhibitory activity, IC50

Row | SMILES | IC50 [5] [µM] | IC50 [6] [µM] | IC50 [7] [µM] | IC50 [8] [µM] | IC50 [9] [µM] | IC50 [10] [µM] | percent inhibition, C8161 (Melanoma) ([1]; 1 ug/mL) | percent inhibition, C8161 (Melanoma) ([1]; 10 ug/mL) | percent inhibition, C8161 (Melanoma) ([1]; 25 ug/mL) | percent inhibition, RPMI-8226 (Multiple Myeloma) ([2]; 1 ug/mL) | percent inhibition, RPMI-8226 (Multiple Myeloma) ([2]; 10 ug/mL) | percent inhibition, RPMI-8226 (Multiple Myeloma) ([2]; 25 ug/mL) | percent inhibition, PC-3 ML (Prostrate) ([3]; 1 ug/mL) | percent inhibition, PC-3 ML (Prostrate) ([3]; 10 ug/mL) | percent inhibition, PC-3 ML (Prostrate) ([3]; 25 ug/mL) | percent inhibition, MDA-MB-231 (Breast) ([4]; 1 ug/mL) | percent inhibition, MDA-MB-231 (Breast) ([4]; 10 ug/mL) | percent inhibition, MDA-MB-231 (Breast) ([4]; 25 ug/mL)
1 | CN(C)c1cc([N+](=O)[O-])c(O)c2c1CC1CC3C(N(C)C)C(O)=C(C(N)=O)C(=O)C3(O)C(O)=C1C2=O (centres unmarked) [Compound 4, 7-Dimethylamino-6-demethyl-6-deoxy-9-nitrotetracycline H2SO4] | 219 | 36 | 278 | 409 | 421 | 61 | 27^B percent | 24^B percent | 17% | +4% | +5% | +14% | 10% | +8% | 3% | 5% | 6% | 2%
2 | CN(C)c1cc(N)c(O)c2c1CC1CC3C(N(C)C)C(O)=C(C(N)=O)C(=O)C3(O)C(O)=C1C2=O (centres unmarked) [Compound 7, 9-Amino-7-dimethylamino-6-demethyl-6-deoxytetracycline H2SO4] | 300 | 64 | 335 | – | > 1000 | > 1000 | 7% | 14% | 16% | +14^B percent | 12% | +2% | 0% | 0% | 3% | +18% | +41^B percent | +27%
3 | CC(=O)Nc1cc(N(C)C)c2c(c1O)C(=O)C1=C(O)C3(O)C(=O)C(C(N)=O)=C(O)C(N(C)C)C3CC1C2 (centres unmarked) [Compound 8, 9-Acetamido-7-dimethylamino-6-demethyl-6-deoxytetracycline H2SO4] | 232 | > 1000 | 388 | > 1000 | 599 | > 1000 | 13^B percent | 41^B percent | 40^B percent | 11% | 3% | +2% | 0% | +4% | 0% | +10% | +5% | +13%
4 | C[C@H]1c2c(N)ccc(O)c2C(=O)C2=C(O)[C@]3(O)C(=O)C(C(N)=O)=C(O)[C@@H](N(C)C)[C@@H]3[C@@H](O)[C@@H]21.O=S(=O)(O)O [Compound 12, 7-Amino-6-deoxy-5-hydroxytetracycline H2SO4] | – | 270 | 503 | > 1000 | > 1000 | > 1000 | +11% | +13% | +12% | – | – | – | – | – | – | – | – | –
5 | CC1c2c(N(C)C)ccc(O)c2C(=O)C2=C(O)C3(O)C(=O)C(C(N)=O)=C(O)C(N(C)C)C3C(O)C21 (centres unmarked) [Compound 15, 7-Dimethylamino-6-deoxy-5-hydroxy-tetracycline H2SO4] | 738 | 402 | 716 | > 1000 | 234 | 768 | – | – | – | – | – | – | – | – | – | – | – | –
6 | CC1c2c(N)cc(C(C)(C)C)c(O)c2C(=O)C2=C(O)C3(O)C(=O)C(C(N)=O)=C(O)CC3C(O)C21.O=S(=O)(O)O (centres unmarked) [Compound 49, 7-Amino-9-tertbutyl-4-dedimethyl-6-deoxy-5-hydroxy-tetracycline-H2SO4] | 141 | 489 | – | 372 | 1570 | 87 | 27^B percent | 7% | 30^B percent | 11% | +2% | 15% | 4% | +5% | 6% | 6% | +5% | +1%

More lines, main results first:

Row | IC50 [5] [µM] | IC50 [6] [µM] | IC50 [7] [µM] | IC50 [8] [µM] | IC50 [9] [µM] | IC50 [10] [µM] | SMILES | percent inhibition, C8161 (Melanoma) ([1]; 1 ug/mL) | percent inhibition, C8161 (Melanoma) ([1]; 10 ug/mL) | percent inhibition, C8161 (Melanoma) ([1]; 25 ug/mL) | percent inhibition, RPMI-8226 (Multiple Myeloma) ([2]; 1 ug/mL) | percent inhibition, RPMI-8226 (Multiple Myeloma) ([2]; 10 ug/mL) | percent inhibition, RPMI-8226 (Multiple Myeloma) ([2]; 25 ug/mL) | percent inhibition, PC-3 ML (Prostrate) ([3]; 1 ug/mL) | percent inhibition, PC-3 ML (Prostrate) ([3]; 10 ug/mL) | percent inhibition, PC-3 ML (Prostrate) ([3]; 25 ug/mL) | percent inhibition, MDA-MB-231 (Breast) ([4]; 1 ug/mL) | percent inhibition, MDA-MB-231 (Breast) ([4]; 10 ug/mL) | percent inhibition, MDA-MB-231 (Breast) ([4]; 25 ug/mL)
7 | 270 | 96 | > 1000 | 427 | > 1000 | 46 | CC1c2ccc([N+]#N)c(O)c2C(=O)C2=C(O)C3(O)C(=O)C(C(N)=O)=C(O)C(N(C)C)C3C(O)C21 (centres unmarked) [Compound 11, 6-Deoxy-5-hydroxytetracycline-9-diazonium H2SO4] | 16% | 46^B percent | 41^B percent | – | – | – | +3% | 0% | 36^B percent | 6% | 15% | 36^B percent
8 | > 1000 | 215 | 569 | 452 | 215 | 715 | CC(=O)Nc1ccc2c(c1O)C(=O)C1=C(O)C3(O)C(=O)C(C(N)=O)=C(O)C(N(C)C)C3C(O)C1C2C (centres unmarked) [Compound 16, 9-Acetamido-6-deoxy-5-hydroxytetracycline H2SO4] | – | – | – | – | – | – | – | – | – | – | – | –
9 | 48 | 34 | – | 211 | 2530 | 40 | CC1c2c([N+]#N)cc(C(C)(C)C)c(O)c2C(=O)C2=C(O)C3(O)C(=O)C(C(N)=O)=C(O)CC3C(O)C21 (centres unmarked) [Compound 50, 4-Dedimethylamino-9-tertbutyl-6-deoxy-5-hydroxytetracycline-7-diazonium H2SO4] | 5% | +2% | 1% | +14% | +8% | +13% | +14% | +17% | +10% | 7% | 0% | 2%
